# Entries after “also recorded” stand apart in the source; their conditions may differ. Marks after values point to notes of the source that are not given here.
# Columns and labels:
# [1] = Obesity ameliorating, lipid metabolism ameliorating and hypoglycemic action in mice bred with a high fat diet; assay type: in vivo, ddY male SPF mice
# Source text: 6 week-old ddY male SPF mice (Nippon .SLC, body weight: about 30 g) were pre-bred for 1 week, then, divided into two groups of a control group and an administration group (5 mice for each group). Each of the mice in both the groups was bred for 6 weeks with a high fat diet (lard 40%, corn starch 10%, granulated sugar 9%, mineral mix 4%, vitamin mix 1%, casein 29%, cellulose 5%, lactose 2%). For the mice in the administration group, a specimen solution prepared by dissolving the compound (I) in purified water was continuously administered for 6 weeks with a dose of 250 mg/kg once a day while allowing water-drinking, and the body weight was measured at a frequency of once a week, during the feeding period with the high fat diet. For the mice in the control group, purified water was administered for 6 weeks instead of the specimen solution while allowing water-drinking.
# The average value of the body weight of mice in each group and the standard error thereof were measured, and a significant difference test (t-test) between both the groups was carried out.
# On the other hand, after completion of the above-mentioned continuous administration allowing water-drinking for 6 weeks, serum was collected from each mouse and blood biochemical values were measured, and liver and fat were excised and the weights of them were measured, respectively. Using the respective measurement results, the average value and the standard error were measured for each group, and a significant difference test (t-test) was carried out between both the groups.
# [2] = Oral administration for two weeks at 2500 mg/kg per day, observation of side effects; assay type: in vivo; settings: ten ICR male mice, versus control group
# [3] = Hair growth ameliorating action on hair-removed back of mice, transdermal administration; assay type: in vivo, C3H male mice; settings: for Hair growth score versus control group (FIG. 9): 10 mg once a day
# Source text: 6 week-old C3H male mice (Nippon SLC, body weight: about 30 g) were pre-bred for 1 week, then, divided into two groups of a control group and an administration group (4 mice for each group). Hair on the back of the mice in both groups was removed with an electric shaver, and hair growth effect was investigated. […] For the mice in the control group, 45% water-containing ethanol was transdermally administered instead of the specimen solution for 28 days.
# For observation of hair growth condition, hair growth score and hair length were measured.
# For measurement of hair growth score, the back of a mouse on which a specimen solution or 45% water-containing ethanol had been applied was visually observed, and based on the conditions directly after hair removal, a case of no change was endowed with 0 point, a case of color change to blue at a center portion on the back was endowed with 1 point, a case of color change from blue black to gray at a center portion on the back was endowed with 2 points, a case of observation of hair growth at a center portion on the back was endowed with 3 points, and a case of covering about 50% at a center portion on the back with back hair and recovery of color before hair removal at a center portion on the back was endowed with 4 points. The score average value and the standard error of the mice in both the groups were measured. Since there was observed […] irregularity in hair growth score between the control group and the administration group, the Mann-Whitney U-test was carried out as a significant difference test between both groups.
# On the other hand, for measurement of hair length, part of hair was collected every one week, then, 10 hairs were selected randomly while removing extremely longer hairs and extremely shorter hairs, and lengths of them were measured by a microscope.
# [4] = 250 mg/kg once a day for 6 weeks, average +/- standard error of five mice
# [5] = serum after 6 weeks, 250 mg/kg once a day, average +/- standard error of five mice
compound,measurement,setting,value
"CC(C)=CC1C/C(=C/CO[C@@H]2OC(CO)[C@@H](O)C(O)C2O)C(=O)O1 (stereo partly drawn) [compound (I), 1-O-β-D-glucopyranosylgeraniol-10,5-olide]","Weight of fat, around kidney",[1]; [4],0.035 ± 0.010 g
same,"Weight of fat, around posterior abdominal wall",[1]; [4],0.186 ± 0.096 g
same,Body weight versus control group (FIG. 8),"[1]; 250 mg/kg once a day for 6 weeks, weighed once a week",the body weight transited at a lower level
same,"Blood biochemical value, blood glucose level","[1]; after 6 weeks, 250 mg/kg once a day, average +/- standard error of five mice",183 +/− 35.7** mg/dL
same,Weight of liver,"[1]; compound 250 mg/kg once a day for 6 weeks, average +/- standard error of five mice",1.124 ± 0.124 g
same,"Blood biochemical value, total cholesterol",[1]; [5],118 ± 22.3 mg/dL
same,"Blood biochemical value, triglyceride",[1]; [5],26 ± 15.8 mg/dL
same,Side effect,[2],did not provide a recognizable side effect; also recorded: no side effect was recognized at all
same,Hair growth score versus control group (FIG. 9),[3]; day 7 to day 17 after transdermal administration,tended to be higher
same,Hair growth score versus control group (FIG. 9),"[3]; days 13, 15 and 16 after transdermal administration, Mann-Whitney U-test",significantly higher
same,Hair length versus control group,"[3]; hair collected every one week, 10 hairs measured by microscope, 10 mg transdermally once a day, data not shown",no significant difference
